Measurements: article PMC7340670, “Phase I study of TAS-115, a novel oral multi-kinase inhibitor, in patients with advanced solid tumors” (Investigational New Drugs, 2019)
pIC50: −log10 of the molar value. “Also recorded” adds a separate entry of the source. Where two headings read alike, the source gives them in different places.

Key:
recombinant MET = test system: recombinant MET; set-up: method as in PMID 24140932; settings: read-out: IC50 against recombinant MET; cited from earlier work
[1] = Plasma pharmacokinetics in the phase I study; assay type: in vivo, human; settings: for half-life / AUC(0-t) / Cmax / Tmax: human, plasma; for half-life: read-out: t1/2 Mean (SD) (converted); for AUC(0-t): read-out: AUC0-24 Mean (SD); for Cmax: read-out: Cmax Mean (SD)
Protocol: Blood samples were collected for plasma PK assessments pre-dosing and at 1, 2, 3, 4, 6, 8, 12, and 24 h after TAS-115 administration on Days 1 and 8 of cycle 1 in part 1, and on Days 1, 8, and 19 of cycle 1 in part 2 (only pre-dosing on Day 8). TAS-115 concentrations were measured by validated liquid chromatography-tandem mass spectrometry. A preliminary assessment of the effect of food on the PK profile was performed. Blood samples after administration under fed and empty stomach conditions were collected from the first six patients in the expansion part. Pharmacokinetic parameters were determined using non-compartmental analyses (Phoenix® WinNonlin® version 6.4; Certara LP, Princeton, NJ, USA).

recombinant VEGFR2 = test system: recombinant VEGFR2; set-up: method as in PMID 24140932; settings: read-out: IC50 against recombinant VEGFR2; cited from earlier work
[2] = test system: AKT and ERK1/2 phosphorylation; set-up: method as in PMID 27539855, PMID 27736957; settings: mouse osteoclasts in vitro; cited from earlier work
VEGF = assay: Pharmacodynamic marker: VEGF in plasma; assay type: in vivo, human
Protocol: The secondary objectives were to investigate the PK profile, safety, tolerability, antitumor activity, and pharmacodynamic profile of TAS-115. AEs were graded according to the CTCAE Version 4.03. Response was assessed by radiologic imaging at 6 and 12 weeks from the first dose, and every 12 weeks thereafter. Antitumor effect was evaluated by investigators using Response Evaluation Criteria in Solid Tumors (RECIST) Version 1.1 [17]. If a patient had bone lesions, evaluation was performed using bone scintigraphy and bone scan index (BSI) were calculated by BONENAVI® software (FUJIFILM Toyama Chemical, Co., Ltd., Japan). BSI response was defined as ≥30% reduction in BSI [18]. An exploratory objective was to assess changes in protein levels of soluble MET (sMET), VEGF, and soluble VEGFR2 (sVEGFR2) in plasma, and HGF in serum as pharmacodynamic markers.
For pharmacodynamic analyses, blood samples were collected on Days 1 and 22 (before dosing, each) in part 1, and Days 1 (pre-dosing) and 19 (pre- and post 6 h) in part 2 and the expansion part. […]
The planned sample size was up to 90 patients, and it was not based on the formal calculation because of experimental phase I trial. For pharmacodynamics parameters, P values were calculated using the paired t-test for measured values from merged doses. […]

[3] = expansion part, 650 mg, six patients, not statistically significant
[4] = oral, 200 mg/day, Part 1, Day 1 (single administration), 200 mg/day, n=3
[5] = oral, 200 mg/day, Part 1, Day 8 (multiple administration), 200 mg/day, n=3
[6] = oral, 300 mg/day, Part 1, Day 1 (single administration), 300 mg/day, n=3
[7] = oral, 300 mg/day, Part 1, Day 8 (multiple administration), 300 mg/day, n=2
[8] = oral, 450 mg/day, Part 1, Day 1 (single administration), 450 mg/day, n=3
[9] = oral, 450 mg/day, Part 1, Day 8 (multiple administration), 450 mg/day, n=3
[10] = oral, 650 mg/day, Expansion part, Empty Stomach, 650 mg/day, n=6
[11] = oral, 650 mg/day, Expansion part, Fed, 650 mg/day, n=6
[12] = oral, 650 mg/day, Part 1, Day 1 (single administration), 650 mg/day, n=6
[13] = oral, 650 mg/day, Part 1, Day 8 (multiple administration), 650 mg/day, n=5
[14] = oral, 650 mg/day, Part 2, Day 1 (single administration), 650 mg/day, n=6
[15] = oral, 650 mg/day, Part 2, Day 19 (multiple administration), 650 mg/day, n=6
[16] = oral, 800 mg/day, Part 1, Day 1 (single administration), 800 mg/day, n=6
[17] = oral, 800 mg/day, Part 1, Day 8 (multiple administration), 800 mg/day, n=6

Question: With `CNC(=O)c1cc2c(Oc3ccc(NC(=S)NC(=O)Cc4ccccc4)cc3F)ccnc2cc1OC` [TAS-115] as the compound, how does the pIC50 (recombinant MET) read?
Answer: 7.49

Question: What about the “dose dependence of AUC0–24 / systemic exposure” value ([1]; after single administration, part 1) of the same compound?
Answer: increased almost dose-proportionally; also recorded: increased dose-proportionally over the tested range from 200 mg to 650 mg

Question: What about the “geometric mean ratio (90% CI) of AUC0–24, fed to empty stomach condition” value [1, 3] of the same compound?
Answer: 0.812 (0.414–1.593)

Question: What about the “geometric mean ratio (90% CI) of Cmax, fed to empty stomach condition” value [1, 3] of the same compound?
Answer: 0.545 (0.243–1.224)

Question: And the half-life ([1]; oral, 200 mg/day, Part 1, Day 1 (single administration), 200 mg/day, n=2)?
Answer: 15.2 h

Question: What about the AUC(0-t) [1, 4] of the same compound?
Answer: 20000 ng·h/mL

Question: And the Cmax [1, 4]?
Answer: 2490 ng/mL

Question: What about the Tmax ([1]; oral, 200 mg/day, Part 1, Day 1 (single administration), 200 mg/day, n=3, read-out: tmax Median) of the same compound?
Answer: 1 h

Question: And the AUC(0-t) [1, 5]?
Answer: 22700 ng·h/mL

Question: What about the Cmax [1, 5] of the same compound?
Answer: 2950 ng/mL

Question: And the half-life [1, 5]?
Answer: 26.6 h

Question: What about the Tmax ([1]; oral, 200 mg/day, Part 1, Day 8 (multiple administration), 200 mg/day, n=3, read-out: tmax Median) of the same compound?
Answer: 1 h

Question: What about the AUC(0-t) [1, 6] of the same compound?
Answer: 23200 ng·h/mL

Question: What about the Cmax [1, 6] of the same compound?
Answer: 3500 ng/mL

Question: What about the half-life [1, 6] of the same compound?
Answer: 20.4 h

Question: And the Tmax ([1]; oral, 300 mg/day, Part 1, Day 1 (single administration), 300 mg/day, n=3, read-out: tmax Median)?
Answer: 1 h

Question: What about the AUC(0-t) [1, 7] of the same compound?
Answer: 32500 ng·h/mL

Question: What about the Cmax [1, 7] of the same compound?
Answer: 3900 ng/mL

Question: What about the half-life [1, 7] of the same compound?
Answer: 15.9 h

Question: What about the Tmax ([1]; oral, 300 mg/day, Part 1, Day 8 (multiple administration), 300 mg/day, n=2, read-out: tmax Median) of the same compound?
Answer: 1.5 h

Question: What about the AUC(0-t) [1, 8] of the same compound?
Answer: 28800 ng·h/mL

Question: What about the Cmax [1, 8] of the same compound?
Answer: 4540 ng/mL

Question: And the half-life [1, 8]?
Answer: 12.6 h

Question: What about the Tmax ([1]; oral, 450 mg/day, Part 1, Day 1 (single administration), 450 mg/day, n=3, read-out: tmax Median) of the same compound?
Answer: 1 h

Question: And the AUC(0-t) [1, 9]?
Answer: 37000 ng·h/mL

Question: And the Cmax [1, 9]?
Answer: 4310 ng/mL

Question: What about the half-life [1, 9] of the same compound?
Answer: 11.4 h

Question: What about the Tmax ([1]; oral, 450 mg/day, Part 1, Day 8 (multiple administration), 450 mg/day, n=3, read-out: tmax Median) of the same compound?
Answer: 1 h

Question: And the AUC(0-t) [1, 10]?
Answer: 39300 ng·h/mL

Question: What about the Cmax [1, 10] of the same compound?
Answer: 4760 ng/mL

Question: And the Tmax ([1]; oral, 650 mg/day, Expansion part, Empty Stomach, 650 mg/day, n=6, read-out: tmax Median)?
Answer: 2 h

Question: And the AUC(0-t) [1, 11]?
Answer: 41700 ng·h/mL

Question: What about the Cmax [1, 11] of the same compound?
Answer: 3900 ng/mL

Question: And the Tmax ([1]; oral, 650 mg/day, Expansion part, Fed, 650 mg/day, n=6, read-out: tmax Median)?
Answer: 5 h

Question: What about the AUC(0-t) [1, 12] of the same compound?
Answer: 59700 ng·h/mL

Question: What about the Cmax [1, 12] of the same compound?
Answer: 7700 ng/mL

Question: What about the half-life [1, 12] of the same compound?
Answer: 10.3 h

Question: What about the Tmax ([1]; oral, 650 mg/day, Part 1, Day 1 (single administration), 650 mg/day, n=6, read-out: tmax Median) of the same compound?
Answer: 1 h

Question: And the half-life ([1]; oral, 650 mg/day, Part 1, Day 8 (multiple administration), 650 mg/day, n=4)?
Answer: 8.7 h

Question: What about the AUC(0-t) [1, 13] of the same compound?
Answer: 54500 ng·h/mL

Question: What about the Cmax [1, 13] of the same compound?
Answer: 5040 ng/mL

Question: And the Tmax ([1]; oral, 650 mg/day, Part 1, Day 8 (multiple administration), 650 mg/day, n=5, read-out: tmax Median)?
Answer: 2 h

Question: And the half-life ([1]; oral, 650 mg/day, Part 2, Day 1 (single administration), 650 mg/day, n=5)?
Answer: 14.5 h

Question: What about the AUC(0-t) [1, 14] of the same compound?
Answer: 49800 ng·h/mL

Question: And the Cmax [1, 14]?
Answer: 7510 ng/mL

Question: And the Tmax ([1]; oral, 650 mg/day, Part 2, Day 1 (single administration), 650 mg/day, n=6, read-out: tmax Median)?
Answer: 1 h

Question: What about the AUC(0-t) [1, 15] of the same compound?
Answer: 56700 ng·h/mL

Question: And the Cmax [1, 15]?
Answer: 7370 ng/mL

Question: What about the half-life [1, 15] of the same compound?
Answer: 16.8 h

Question: What about the Tmax ([1]; oral, 650 mg/day, Part 2, Day 19 (multiple administration), 650 mg/day, n=6, read-out: tmax Median) of the same compound?
Answer: 1 h

Question: And the AUC(0-t) [1, 16]?
Answer: 37800 ng·h/mL

Question: And the Cmax [1, 16]?
Answer: 4910 ng/mL

Question: What about the half-life [1, 16] of the same compound?
Answer: 13.7 h

Question: What about the Tmax ([1]; oral, 800 mg/day, Part 1, Day 1 (single administration), 800 mg/day, n=6, read-out: tmax Median) of the same compound?
Answer: 1 h

Question: And the AUC(0-t) [1, 17]?
Answer: 44600 ng·h/mL

Question: What about the Cmax [1, 17] of the same compound?
Answer: 5220 ng/mL

Question: What about the half-life [1, 17] of the same compound?
Answer: 12.8 h

Question: What about the Tmax ([1]; oral, 800 mg/day, Part 1, Day 8 (multiple administration), 800 mg/day, n=6, read-out: tmax Median) of the same compound?
Answer: 1.5 h

Question: What about the Tmax ([1]; po, oral administration, across dose levels, read-out: median time to maximum concentration (tmax)) of the same compound?
Answer: 1 to 2 h

Question: And the accumulation ([1]; multiple dosing for 8 days, part 1)?
Answer: no accumulation

Question: And the pIC50 (recombinant VEGFR2)?
Answer: 7.52

Question: And the “HGF, and VEGF-induced phosphorylation of signaling factors (AKT and ERK1/2)” value [2]?
Answer: suppressed

Question: What about the “change of VEGF” value (VEGF; 6 h post-dose on Day 19 compared with pre-dose on Day 19, P = .0844) of the same compound?
Answer: increase

Question: And the “marked alterations of VEGF from Day 1” value (VEGF; in vivo)?
Answer: not observed
